Source: PubChem BioAssay (NCI)
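96-well plates; 48 h exposure; 5 concentrations. Endpoints by linear interpolation between flanking doses. Not reached: highest tested concentration assigned. At the TGI there is no net growth.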

Legend:
Assay in all cases: NCI tumour cell line growth inhibition, 48 h
LXFL 529 NSCLC = tested on: LXFL 529 NSCLC
SF-539 CNS = tested on: SF-539 CNS
SK-MEL-28 melanoma = tested on: SK-MEL-28 melanoma
RXF 393 renal = tested on: RXF 393 renal
IGROV1 ovarian = tested on: IGROV1 ovarian
MOLT-4 leukemia = tested on: MOLT-4 leukemia
SK-MEL-5 melanoma = tested on: SK-MEL-5 melanoma
RXF-631 renal = tested on: RXF-631 renal
DMS 114 small cell lung = tested on: DMS 114 small cell lung
786-0 renal = tested on: 786-0 renal
HT29 colon = tested on: HT29 colon
SNB-19 CNS = tested on: SNB-19 CNS
MALME-3M melanoma = tested on: MALME-3M melanoma
OVCAR-8 ovarian = tested on: OVCAR-8 ovarian
NCI-H460 lung = tested on: NCI-H460 lung
M19-MEL melanoma = tested on: M19-MEL melanoma
SW-620 colon = tested on: SW-620 colon
UACC-257 melanoma = tested on: UACC-257 melanoma
OVCAR-3 ovarian = tested on: OVCAR-3 ovarian
ACHN renal = tested on: ACHN renal
SN12C renal = tested on: SN12C renal
CCRF-CEM leukemia = tested on: CCRF-CEM leukemia
OVCAR-5 ovarian = tested on: OVCAR-5 ovarian
KM20L2 colon = tested on: KM20L2 colon
SF-268 CNS = tested on: SF-268 CNS
U251 CNS = tested on: U251 CNS
SNB-75 CNS = tested on: SNB-75 CNS
KM12 colon = tested on: KM12 colon
SR leukemia = tested on: SR leukemia
DMS 273 small cell lung = tested on: DMS 273 small cell lung
DLD-1 colon = tested on: DLD-1 colon
HOP-62 NSCLC = tested on: HOP-62 NSCLC
HCC-2998 colon = tested on: HCC-2998 colon
HCT-15 colon = tested on: HCT-15 colon
NCI-H23 lung = tested on: NCI-H23 lung
K-562 leukemia = tested on: K-562 leukemia
UACC-62 melanoma = tested on: UACC-62 melanoma
COLO 205 colon = tested on: COLO 205 colon
HOP-18 NSCLC = tested on: HOP-18 NSCLC
HCT-116 colon = tested on: HCT-116 colon
SNB-78 CNS = tested on: SNB-78 CNS
SK-MEL-2 melanoma = tested on: SK-MEL-2 melanoma
SF-295 CNS = tested on: SF-295 CNS
LOX IMVI melanoma = tested on: LOX IMVI melanoma
M14 melanoma = tested on: M14 melanoma
NCI-H226 lung = tested on: NCI-H226 lung
EKVX NSCLC = tested on: EKVX NSCLC
HOP-92 NSCLC = tested on: HOP-92 NSCLC
UO-31 renal = tested on: UO-31 renal
XF 498 CNS = tested on: XF 498 CNS
HL-60(TB) leukemia = tested on: HL-60(TB) leukemia
OVCAR-4 ovarian = tested on: OVCAR-4 ovarian
TK-10 renal = tested on: TK-10 renal
A549 NSCLC = tested on: A549 NSCLC
SK-OV-3 ovarian = tested on: SK-OV-3 ovarian
CAKI-1 renal = tested on: CAKI-1 renal
NCI/ADR-RES ovarian = tested on: NCI/ADR-RES ovarian
P388/ADR leukemia = tested on: P388/ADR leukemia
A498 renal = tested on: A498 renal
MCF7 breast = tested on: MCF7 breast
NCI-H522 lung = tested on: NCI-H522 lung

O=c1nc2sc3ccc4ccccc4c3n2nc1-c1ccccc1
TGI (LXFL 529 NSCLC): > 100 µM | TGI (SF-539 CNS): 34.2 µM | TGI (SK-MEL-28 melanoma): > 100 µM | TGI (RXF 393 renal): 70.6 µM | TGI (IGROV1 ovarian): 82.6 µM | TGI (MOLT-4 leukemia): > 100 µM | TGI (SK-MEL-5 melanoma): > 100 µM | TGI (RXF-631 renal): > 100 µM | TGI (DMS 114 small cell lung): > 100 µM | TGI (786-0 renal): 38 µM | TGI (HT29 colon): > 100 µM | TGI (SNB-19 CNS): > 100 µM | TGI (MALME-3M melanoma): 41.1 µM | TGI (OVCAR-8 ovarian): 42.2 µM | TGI (NCI-H460 lung): 59.2 µM | TGI (M19-MEL melanoma): > 100 µM | TGI (SW-620 colon): > 100 µM | TGI (UACC-257 melanoma): > 100 µM | TGI (OVCAR-3 ovarian): 40.4 µM | TGI (ACHN renal): 87.4 µM | TGI (SN12C renal): 93.8 µM | TGI (CCRF-CEM leukemia): > 100 µM | TGI (OVCAR-5 ovarian): > 100 µM | TGI (KM20L2 colon): > 100 µM | TGI (SF-268 CNS): > 100 µM | TGI (U251 CNS): 38.2 µM | TGI (SNB-75 CNS): 46.9 µM | TGI (KM12 colon): > 100 µM | TGI (SR leukemia): > 100 µM | TGI (DMS 273 small cell lung): > 100 µM | TGI (DLD-1 colon): > 100 µM | TGI (HOP-62 NSCLC): 66.6 µM | TGI (HCC-2998 colon): > 100 µM | TGI (HCT-15 colon): > 100 µM | TGI (NCI-H23 lung): 87.5 µM | TGI (K-562 leukemia): > 100 µM | TGI (UACC-62 melanoma): > 100 µM | TGI (COLO 205 colon): > 100 µM | TGI (HOP-18 NSCLC): 93.7 µM | TGI (HCT-116 colon): 51.2 µM | TGI (SNB-78 CNS): > 100 µM | TGI (SK-MEL-2 melanoma): > 100 µM | TGI (SF-295 CNS): 33.3 µM | TGI (LOX IMVI melanoma): 28.4 µM | TGI (M14 melanoma): > 100 µM | TGI (NCI-H226 lung): > 100 µM | TGI (EKVX NSCLC): > 100 µM | TGI (HOP-92 NSCLC): 50 µM | TGI (UO-31 renal): 51.4 µM | TGI (XF 498 CNS): 70.2 µM | TGI (HL-60(TB) leukemia): > 100 µM | TGI (OVCAR-4 ovarian): 29.3 µM | TGI (TK-10 renal): 50.4 µM | TGI (A549 NSCLC): 94.5 µM | TGI (SK-OV-3 ovarian): 95.1 µM | TGI (CAKI-1 renal): 73.9 µM

O=C1c2cccc3cc4ccccc4c(c23)C(=O)N1CCNCCNCCNCCN1C(=O)c2cccc3cc4ccccc4c(c23)C1=O
TGI (SF-539 CNS): 0.288 µM | TGI (SK-MEL-28 melanoma): 0.324 µM | TGI (RXF 393 renal): 0.0435 µM | TGI (IGROV1 ovarian): 1.22 µM | TGI (MOLT-4 leukemia): 0.212 µM | TGI (SK-MEL-5 melanoma): 0.578 µM | TGI (DMS 114 small cell lung): 0.177 µM | TGI (NCI/ADR-RES ovarian): 1.53 µM | TGI (HT29 colon): 0.552 µM | TGI (SNB-19 CNS): 0.927 µM | TGI (P388/ADR leukemia): 0.47 µM | TGI (MALME-3M melanoma): 0.78 µM | TGI (OVCAR-8 ovarian): 0.735 µM | TGI (NCI-H460 lung): 0.0233 µM | TGI (M19-MEL melanoma): 0.161 µM | TGI (SW-620 colon): 0.308 µM | TGI (UACC-257 melanoma): 0.767 µM | TGI (OVCAR-3 ovarian): 0.546 µM | TGI (SN12C renal): 1.41 µM | TGI (CCRF-CEM leukemia): 0.637 µM | TGI (A498 renal): 0.566 µM | TGI (OVCAR-5 ovarian): 0.672 µM | TGI (KM20L2 colon): 0.597 µM | TGI (SF-268 CNS): 0.197 µM | TGI (U251 CNS): 0.539 µM | TGI (SNB-75 CNS): 0.106 µM | TGI (DMS 273 small cell lung): 0.159 µM | TGI (DLD-1 colon): 0.344 µM | TGI (HCC-2998 colon): 0.0829 µM | TGI (HCT-15 colon): 0.474 µM | TGI (NCI-H23 lung): 0.159 µM | TGI (UACC-62 melanoma): 0.156 µM | TGI (MCF7 breast): 1.87 µM | TGI (COLO 205 colon): 0.184 µM | TGI (HOP-18 NSCLC): 0.398 µM | TGI (HCT-116 colon): 1.11 µM | TGI (SNB-78 CNS): 0.385 µM | TGI (SK-MEL-2 melanoma): 0.252 µM | TGI (SF-295 CNS): 0.281 µM | TGI (LOX IMVI melanoma): 0.155 µM | TGI (NCI-H226 lung): > 100 µM | TGI (EKVX NSCLC): 0.666 µM | TGI (HOP-92 NSCLC): 0.254 µM | TGI (UO-31 renal): 0.36 µM | TGI (XF 498 CNS): 0.178 µM | TGI (HL-60(TB) leukemia): 0.212 µM | TGI (OVCAR-4 ovarian): 0.314 µM | TGI (A549 NSCLC): 1 µM | TGI (CAKI-1 renal): 0.344 µM

Cc1ccnc(NS(=O)(=O)c2ccc(NC3=CC(=O)C(=O)c4ccccc43)cc2)n1
TGI (LXFL 529 NSCLC): > 100 µM | TGI (SF-539 CNS): > 100 µM | TGI (SK-MEL-28 melanoma): > 100 µM | TGI (NCI-H522 lung): > 100 µM | TGI (RXF 393 renal): > 100 µM | TGI (IGROV1 ovarian): > 100 µM | TGI (MOLT-4 leukemia): > 100 µM | TGI (SK-MEL-5 melanoma): > 100 µM | TGI (RXF-631 renal): > 100 µM | TGI (DMS 114 small cell lung): > 100 µM | TGI (786-0 renal): > 100 µM | TGI (HT29 colon): > 100 µM | TGI (SNB-19 CNS): > 100 µM | TGI (MALME-3M melanoma): > 100 µM | TGI (OVCAR-8 ovarian): > 100 µM | TGI (NCI-H460 lung): > 100 µM | TGI (M19-MEL melanoma): > 100 µM | TGI (SW-620 colon): > 100 µM | TGI (UACC-257 melanoma): > 100 µM | TGI (OVCAR-3 ovarian): > 100 µM | TGI (ACHN renal): > 100 µM | TGI (SN12C renal): > 100 µM | TGI (CCRF-CEM leukemia): > 100 µM | TGI (A498 renal): > 100 µM | TGI (OVCAR-5 ovarian): > 100 µM | TGI (KM20L2 colon): > 100 µM | TGI (SF-268 CNS): > 100 µM | TGI (U251 CNS): > 100 µM | TGI (SNB-75 CNS): > 100 µM | TGI (KM12 colon): > 100 µM | TGI (SR leukemia): > 100 µM | TGI (DMS 273 small cell lung): > 100 µM | TGI (DLD-1 colon): > 100 µM | TGI (HOP-62 NSCLC): > 100 µM | TGI (HCC-2998 colon): > 100 µM | TGI (HCT-15 colon): > 100 µM | TGI (NCI-H23 lung): > 100 µM | TGI (K-562 leukemia): > 100 µM | TGI (UACC-62 melanoma): > 100 µM | TGI (COLO 205 colon): > 100 µM | TGI (HOP-18 NSCLC): > 100 µM | TGI (HCT-116 colon): > 100 µM | TGI (SNB-78 CNS): > 100 µM | TGI (SK-MEL-2 melanoma): > 100 µM | TGI (SF-295 CNS): > 100 µM | TGI (LOX IMVI melanoma): > 100 µM | TGI (M14 melanoma): > 100 µM | TGI (NCI-H226 lung): > 100 µM | TGI (EKVX NSCLC): > 100 µM | TGI (UO-31 renal): > 100 µM | TGI (XF 498 CNS): > 100 µM | TGI (HL-60(TB) leukemia): > 100 µM | TGI (OVCAR-4 ovarian): > 100 µM | TGI (TK-10 renal): > 100 µM | TGI (A549 NSCLC): > 100 µM | TGI (SK-OV-3 ovarian): > 100 µM | TGI (CAKI-1 renal): > 100 µM
